Where a name gives a salt, the structure may show the parent alone.
Columns and labels:
SREBP-2 = SREBP-2 (Homo sapiens (Human), UniProt Q12772); test: In vitro assay SREBP-2: PathHunter U2OS SREBP-2 Nuclear Translocation Cell Line, U18666A-stimulated; assay type: cell-based; conditions: PathHunter U2OS SREBP-2 nuclear translocation cells, U18666A 10 μM, overnight (16 hours)
LXRβ = LXRβ (Homo sapiens (Human), UniProt P55055); test: In vitro assay LXRβ: PathHunter NHR CHO cells, LXRβ / Steroid Receptor Co-activator Peptide enzyme fragment complementation; assay type: cell-based; conditions: PathHunter NHR CHO cells, full-length human LXRβ and SRCP, chemiluminescent signal; read-out: LXRβ PPI
Chain of LXRβ (P55055 whole entry, the tested form may be a part): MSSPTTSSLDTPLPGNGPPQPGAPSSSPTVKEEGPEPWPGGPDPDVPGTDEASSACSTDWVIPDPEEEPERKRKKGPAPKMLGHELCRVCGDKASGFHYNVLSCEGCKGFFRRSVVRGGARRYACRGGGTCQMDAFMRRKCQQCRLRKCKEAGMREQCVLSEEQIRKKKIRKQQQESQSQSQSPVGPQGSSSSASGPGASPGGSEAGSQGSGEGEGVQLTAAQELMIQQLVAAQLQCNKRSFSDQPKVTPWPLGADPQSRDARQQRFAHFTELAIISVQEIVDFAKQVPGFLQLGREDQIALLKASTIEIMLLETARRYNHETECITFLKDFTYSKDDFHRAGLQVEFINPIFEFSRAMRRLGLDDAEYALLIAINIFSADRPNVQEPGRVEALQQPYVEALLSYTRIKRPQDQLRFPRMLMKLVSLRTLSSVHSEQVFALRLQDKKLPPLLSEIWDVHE
In short: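 Co-activator recruitment measured by chemiluminescence after signal generation. The CHO line carries full-length human LXRβ tagged with ProLink and an SRCP–enzyme acceptor fusion in the nucleus; cells sat overnight at 37° C before testing, in charcoal-dextran filtered serum medium with 1% final vehicle.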

Structure (SMILES) | IC50 (SREBP-2) [nM] | EC50 (LXRβ) [nM]
C[C@H](CCC(=O)N(C)OCCN)[C@H]1CC[C@H]2[C@@H]3CC=C4C[C@@H](O)CC[C@]4(C)[C@H]3CC[C@]12C [Example 28, (R)—N-(2-aminoethoxy)-4-((3S,8S,9S,10R,13R,14S,17R)-3-hydroxy-10,13-dimethyl-2,3,4,7,8,9,10,11,12,13,14,15,16,17-tetradecahydro-1H-cyclopenta[a]phenanthren-17-yl)-N-methylpentanamide hydrochloride] | 250 to 1000 | > 10000
C[C@H](CCC(=O)N1CCC2(CC1)COC2)[C@H]1CC[C@H]2[C@@H]3CC=C4C[C@@H](O)CC[C@]4(C)[C@H]3CC[C@]12C [Example 80, (R)-4-((3S,8S,9S,10R,13R,14S,17R)-3-hydroxy-10,13-dimethyl-2,3,4,7,8,9,10,11,12,13,14,15,16,17-tetradecahydro-1H-cyclopenta[a]phenanthren-17-yl)-1-(2-oxa-7-azaspiro[3.5]nonan-7-yl)pentan-1-one] | < 250 | 1000 to 10000
C[C@H](CCC(=O)N(C)C)[C@H]1CC[C@H]2[C@@H]3CC=C4C[C@](C)(O)CC[C@]4(C)[C@H]3CC[C@]12C [Example 121, (R)-4-((3R,8S,9S,10R,13R,14S,17R)-3-hydroxy-3,10,13-trimethyl-2,3,4,7,8,9,10,11,12,13,14,15,16,17-tetradecahydro-1H-cyclopenta [a]phenanthren-17-yl) -N,N-dimethylpentanamide] | > 10000 | 1000 to 10000
C[C@H](CCC(=O)N1CCN(C(=O)c2cnn(C)c2)CC1)[C@H]1CC[C@H]2[C@@H]3CC=C4C[C@@H](O)CC[C@]4(C)[C@H]3CC[C@]12C [Example 309, (4R)-4-[(1R,3aS,3bS,7S,9aR,9bS,11aR)-7-hydroxy-9a,11a-dimethyl-1H,2H,3H,3aH,3bH,4H,6H,7H,8H,9H,9aH,9bH,10H,11H,11aH-cyclopenta[a]phenanthren-1-yl]-1-[4-(1-methyl-1H-pyrazole-4-carbonyl)piperazin-1-yl]pentan-1-one] | < 250 | > 10000
C[C@H](CCC(=O)N1CCN(c2cc(N)ncn2)CC1)[C@H]1CC[C@H]2[C@@H]3CC=C4C[C@@H](O)CC[C@]4(C)[C@H]3CC[C@]12C [Example 633, (R)-1-(4-(6-aminopyrimidin-4-yl)piperazin-1-yl)-4-((3S,8S,9S,10R,13R,14S,17R)-3-hydroxy-10,13-dimethyl-2,3,4,7,8,9,10,11,12,13,14,15,16,17-tetradecahydro-1H-cyclopenta[a]phenanthren-17-yl)pentan-1-one] | < 250 | > 10000
Cc1cncc(N2CCN(C(=O)CC[C@@H](C)[C@H]3CC[C@H]4[C@@H]5CC=C6C[C@@H](O)CC[C@]6(C)[C@H]5CC[C@]34C)CC2)c1 [Example 661, (R)-4-((3S,8S,9S,10R,13R,14S,17R)-3-hydroxy-10,13-dimethyl-2,3,4,7,8,9,10,11,12,13,14,15,16,17-tetradecahydro-1H-cyclopenta[a]phenanthren-17-yl)-1-(4-(5-methylpyridin-3-yl)piperazin-1-yl)pentan-1-one] | < 250 | > 10000
CCC1(O)CC2(CN(C(=O)CC[C@@H](C)[C@H]3CC[C@H]4[C@@H]5CC=C6C[C@@H](O)CC[C@]6(C)[C@H]5CC[C@]34C)C2)C1 [Example 102, (R)-1-(6-ethyl-6-hydroxy-2-azaspiro[3.3]heptan-2-yl)-4-((3S,8S,9S,10R,13R,14S,17R)-3-hydroxy-10,13-dimethy12,3,4,7,8,9,10,11,12,13,14,15,16,17-tetradecahydro-1H-cyclopenta[a]phenanthren-17-yl)pentan-1-one] | < 250 | > 10000
C[C@H](CCC(=O)N1CCC2(CCCO2)CC1)[C@H]1CC[C@H]2[C@@H]3CC=C4C[C@@H](O)CC[C@]4(C)[C@H]3CC[C@]12C [Example 88, (R)-4-((3S,8S,9S,10R,13R,14S,17R)-3-hydroxy-10,13-dimethyl-2,3,4,7,8,9,10,11,12,13,14,15,16,17-tetradecahydro-1H-cyclopenta[a]phenanthren-17-yl)-1-(1-oxa-δ-azaspiro[4.5]decan-δ-yl)pentan-1-one] | < 250 | > 10000
C[C@H](CCC(=O)N(C)CCc1nccs1)[C@H]1CC[C@H]2[C@@H]3CC=C4C[C@@H](O)CC[C@]4(C)[C@H]3CC[C@]12C [Example 545, (R)-4-((3S,8S,9S,10R,13R,14S,17R)-3-hydroxy-10,13-dimethyl-2,3,4,7,8,9,10,11,12,13,14,15,16,17-tetradecahydro-1H-cyclopenta[a]phenanthren-17-yl)-N-methyl-N-(2-(thiazol-2-yl)ethyl)pentanamide] | 250 to 1000 | 250 to 1000
CON(C(=O)CC[C@@H](C)[C@H]1CC[C@H]2[C@@H]3CC=C4C[C@@H](O)CC[C@]4(C)[C@H]3CC[C@]12C)[C@H](C)CO [Example 71, (R)-4-((3S,8S,9S,10R,13R,14S,17R)-3-hydroxy-10,13-dimethyl-2,3,4,7,8,9,10,11,12,13,14,15,16,17-tetradecahydro-1H-cyclopenta[a]phenanthren-17-yl)-N—((R)-1-hydroxypropan-2-yl)-N-methoxypentanamide] | 250 to 1000 | 250 to 1000
CCC1(O)CCN(C(=O)OC[C@@H](C)[C@H]2CC[C@H]3[C@@H]4CC=C5C[C@@H](O)CC[C@]5(C)[C@H]4CC[C@]23C)CC1 [Example 348, (S)-2-((3S,8S,9S,10R,13S,14S,17R)-3-hydroxy-10,13-dimethyl-2,3,4,7,8,9,10,11,12,13,14,15,16,17-tetradecahydro-1H-cyclopenta [a]phenanthren-17-yl)propyl 4-ethyl-4-hydroxypiperidine-1-carboxylate] | < 250 | > 10000
C[C@H](CCC(=O)N1CCN(C(=O)C2CC2)C[C@@H]1C)[C@H]1CC[C@H]2[C@@H]3CC=C4C[C@@H](O)CC[C@]4(C)[C@H]3CC[C@]12C [Example 651, (R)-1-((S)-4-(cyclopropanecarbonyl)-2-methylpiperazin-1-yl)-4-((3S,8S,9S,10R,13R,14S,17R)-3-hydroxy-10,13-dimethyl-2,3,4,7,8,9,10,11,12,13,14,15,16,17-tetradecahydro-1H-cyclopenta[a]phenanthren-17-yl)pentan-1-one] | < 250 | > 10000
C[C@H](CCC(=O)N1CCC(C)(C(N)=O)CC1)[C@H]1CC[C@H]2[C@@H]3CC=C4C[C@@H](O)CC[C@]4(C)[C@H]3CC[C@]12C [Example 85, 1-((R)-4-((3S,8S,9S,10R,13R,14S,17R)-3-hydroxy-10,13-dimethyl-2,3,4,7,8,9,10,11,12,13,14,15,16,17-tetradecahydro-1H-cyclopenta[a]phenanthren-17-yl)pentanoyl)-4-methylpiperidine-4-carboxamide] | < 250 | > 10000
C[C@H](CCC(=O)N1CCN(C(=O)OC2CC2)C[C@@H]1C)[C@H]1CC[C@H]2[C@@H]3CC=C4C[C@@H](O)CC[C@]4(C)[C@H]3CC[C@]12C [Example 584] | < 250 | > 10000

— US20230340011A1 (Asteroid Therapeutics, priority 2022, published 2023)
